Article PMC4588880, “Three genes encoding AOP2, a protein involved in aliphatic glucosinolate biosynthesis, are differentially expressed in Brassica rapa” (Journal of Experimental Botany, 2015)

Assays:
Assay in all cases: HPLC of desulfoglucosinolates, conversion to 3-butenyl glucosinolate
Assay type in all cases: biochemical
Conditions in all cases: 10 mM 2-oxoglutarate, 10 mM ascorbate, 200 uM FeSO4, 200 mM sucrose, 28 °C, 4 h
BrAOP2.3 = target: T1, BrAOP2.3 (Brassica rapa, UniProt M4DPT0)
T1 construct: full-length 428 aa, N-terminal thioredoxin/His fusion (pET-32a), E. coli BL21(DE3), Ni-NTA; chromosome A02
T1 sequence (M4DPT0 1-428): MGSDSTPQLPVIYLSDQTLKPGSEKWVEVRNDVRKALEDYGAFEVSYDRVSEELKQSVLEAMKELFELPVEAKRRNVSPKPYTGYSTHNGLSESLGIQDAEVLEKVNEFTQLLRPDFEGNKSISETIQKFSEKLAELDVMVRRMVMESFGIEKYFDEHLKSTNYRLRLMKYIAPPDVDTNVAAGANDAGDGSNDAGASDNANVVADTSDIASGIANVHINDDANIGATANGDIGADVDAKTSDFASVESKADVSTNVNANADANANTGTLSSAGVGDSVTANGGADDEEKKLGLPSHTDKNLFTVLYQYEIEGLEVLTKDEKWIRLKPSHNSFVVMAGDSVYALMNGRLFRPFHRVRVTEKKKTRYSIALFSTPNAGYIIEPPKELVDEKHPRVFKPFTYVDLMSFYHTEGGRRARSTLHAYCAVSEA

BrAOP2.1 [1] = target: T2, BrAOP2.1 (Brassica rapa, UniProt M4EZD7, H308L)
T2 construct: full-length 439 aa, N-terminal thioredoxin/His fusion (pET-32a), E. coli BL21(DE3), Ni-NTA; chromosome A09
T2 sequence (M4EZD7 entry or part of it H308L): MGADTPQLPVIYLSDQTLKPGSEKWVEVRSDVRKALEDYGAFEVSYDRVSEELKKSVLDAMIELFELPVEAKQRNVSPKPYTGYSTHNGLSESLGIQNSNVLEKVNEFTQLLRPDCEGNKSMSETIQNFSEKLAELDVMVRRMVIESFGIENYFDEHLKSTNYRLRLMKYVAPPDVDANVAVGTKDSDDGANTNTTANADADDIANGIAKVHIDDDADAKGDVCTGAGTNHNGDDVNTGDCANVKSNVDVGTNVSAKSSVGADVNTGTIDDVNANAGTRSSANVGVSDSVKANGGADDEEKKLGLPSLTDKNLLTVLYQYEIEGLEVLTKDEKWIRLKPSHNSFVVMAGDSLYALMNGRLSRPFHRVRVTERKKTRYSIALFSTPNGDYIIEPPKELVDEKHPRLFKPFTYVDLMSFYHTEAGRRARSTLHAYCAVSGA

BrAOP2.1 [2] = target: T3, BrAOP2.1 (Brassica rapa, UniProt M4EZD7)
T3 construct: full-length 439 aa, N-terminal thioredoxin/His fusion (pET-32a), E. coli BL21(DE3), Ni-NTA; chromosome A09
T3 sequence (M4EZD7 1-439): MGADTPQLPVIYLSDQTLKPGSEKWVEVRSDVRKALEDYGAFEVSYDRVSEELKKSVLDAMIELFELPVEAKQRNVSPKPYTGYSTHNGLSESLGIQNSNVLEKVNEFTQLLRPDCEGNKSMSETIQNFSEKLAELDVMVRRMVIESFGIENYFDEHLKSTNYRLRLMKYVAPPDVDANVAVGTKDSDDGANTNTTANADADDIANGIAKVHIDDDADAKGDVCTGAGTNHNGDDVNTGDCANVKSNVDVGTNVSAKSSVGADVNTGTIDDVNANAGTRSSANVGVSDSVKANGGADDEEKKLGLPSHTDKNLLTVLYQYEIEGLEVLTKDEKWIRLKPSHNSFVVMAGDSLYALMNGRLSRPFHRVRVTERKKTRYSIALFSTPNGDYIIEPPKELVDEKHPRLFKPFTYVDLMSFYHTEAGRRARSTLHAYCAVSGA

With C[S+]([O-])CCCC/C(=N/OS(=O)(=O)O)S[C@@H]1O[C@H](CO)[C@@H](O)[C@H](O)[C@H]1O (stereo partly drawn) [glucoraphanin] the “HPLC of desulfoglucosinolates, conversion to 3-butenyl glucosinolate” value (shortened to “HPLC of desulfoglucosinolates”) (BrAOP2.3) was “all three BrAOP2 proteins successfully catalysed the conversion of GRA to NAP”, the “HPLC of desulfoglucosinolates” value (BrAOP2.1 [1]) was “the purified H308L mutant enzyme was shown to still catalyse the conversion of GRA” and the “HPLC of desulfoglucosinolates” value (BrAOP2.1 [2]) was “all three BrAOP2 proteins successfully catalysed the conversion of GRA to NAP”.
